Here are results for six compounds from ChEMBL document CHEMBL1129677, “3 alpha-(4'-substituted phenyl)tropane-2 beta-carboxylic acid methyl esters: novel ligands with high affinity and selectivity at the dopamine transporter” (J Med Chem, 1996).

Assay [1] concerns the target Sodium-dependent dopamine transporter (Rattus norvegicus, UniProt P23977). The assay is described as follows: Inhibition of [3H]WIN-35428 binding to Dopamine transporter.
For assay [2], the target named is Norepinephrine transporter (Rattus norvegicus, UniProt Q9WTR4). The assay is described as follows: Binding potency for Norepinephrine transporter using [3H]NE.
Assay [3] has as its target Sodium-dependent serotonin transporter (Rattus norvegicus, UniProt P31652). The assay is described as follows: Binding potency for Serotonin transporter using [3H]- paroxetine.

Sequence of Sodium-dependent serotonin transporter (P31652 whole entry): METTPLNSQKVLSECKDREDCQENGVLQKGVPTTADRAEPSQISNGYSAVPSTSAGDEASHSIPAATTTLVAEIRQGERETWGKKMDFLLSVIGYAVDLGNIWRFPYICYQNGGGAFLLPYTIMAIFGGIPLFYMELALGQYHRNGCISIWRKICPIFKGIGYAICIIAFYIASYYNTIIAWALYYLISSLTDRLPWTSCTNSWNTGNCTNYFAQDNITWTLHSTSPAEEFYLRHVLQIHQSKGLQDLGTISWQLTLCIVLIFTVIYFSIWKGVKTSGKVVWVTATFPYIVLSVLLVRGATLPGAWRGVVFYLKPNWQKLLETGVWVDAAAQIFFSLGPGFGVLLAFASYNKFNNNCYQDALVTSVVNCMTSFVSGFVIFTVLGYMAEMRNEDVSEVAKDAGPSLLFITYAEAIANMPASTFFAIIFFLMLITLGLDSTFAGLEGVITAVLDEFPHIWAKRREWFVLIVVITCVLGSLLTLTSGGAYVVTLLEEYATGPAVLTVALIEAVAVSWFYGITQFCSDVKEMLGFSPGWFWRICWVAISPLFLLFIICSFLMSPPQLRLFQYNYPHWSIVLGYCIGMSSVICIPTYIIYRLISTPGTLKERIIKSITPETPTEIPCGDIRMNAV
Sequence of Sodium-dependent dopamine transporter (P23977 whole entry): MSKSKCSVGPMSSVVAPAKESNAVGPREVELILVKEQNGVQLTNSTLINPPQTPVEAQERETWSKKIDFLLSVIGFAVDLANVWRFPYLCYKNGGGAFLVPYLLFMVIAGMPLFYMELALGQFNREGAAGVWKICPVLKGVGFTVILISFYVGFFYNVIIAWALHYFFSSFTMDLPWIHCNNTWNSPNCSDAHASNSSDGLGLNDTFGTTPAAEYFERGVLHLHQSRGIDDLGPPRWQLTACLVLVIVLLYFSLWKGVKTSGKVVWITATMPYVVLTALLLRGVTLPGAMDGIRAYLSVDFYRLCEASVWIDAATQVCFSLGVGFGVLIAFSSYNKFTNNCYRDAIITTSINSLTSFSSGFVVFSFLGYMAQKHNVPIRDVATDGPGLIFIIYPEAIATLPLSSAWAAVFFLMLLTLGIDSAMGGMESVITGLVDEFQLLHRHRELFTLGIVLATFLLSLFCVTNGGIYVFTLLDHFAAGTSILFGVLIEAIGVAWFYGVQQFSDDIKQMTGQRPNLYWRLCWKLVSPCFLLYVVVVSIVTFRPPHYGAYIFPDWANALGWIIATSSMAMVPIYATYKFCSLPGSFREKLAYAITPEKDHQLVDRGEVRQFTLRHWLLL
Sequence of Norepinephrine transporter (Q9WTR4 whole entry): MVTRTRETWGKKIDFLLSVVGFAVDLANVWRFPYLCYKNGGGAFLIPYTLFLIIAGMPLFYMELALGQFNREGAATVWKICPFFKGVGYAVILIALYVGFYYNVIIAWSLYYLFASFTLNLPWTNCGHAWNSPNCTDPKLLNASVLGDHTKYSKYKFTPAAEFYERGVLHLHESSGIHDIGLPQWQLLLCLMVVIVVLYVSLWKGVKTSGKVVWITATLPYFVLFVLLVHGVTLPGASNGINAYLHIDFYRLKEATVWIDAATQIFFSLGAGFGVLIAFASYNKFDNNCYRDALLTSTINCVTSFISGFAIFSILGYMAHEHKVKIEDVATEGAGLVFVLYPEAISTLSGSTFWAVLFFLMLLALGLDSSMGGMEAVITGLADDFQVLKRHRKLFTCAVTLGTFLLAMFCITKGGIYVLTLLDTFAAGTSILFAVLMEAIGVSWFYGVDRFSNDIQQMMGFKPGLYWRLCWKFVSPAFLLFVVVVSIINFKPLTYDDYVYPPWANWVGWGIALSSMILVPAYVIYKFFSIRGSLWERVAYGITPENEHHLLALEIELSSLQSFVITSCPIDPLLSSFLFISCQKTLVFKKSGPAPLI

Broadly, the IC50 is the concentration that gives 50% inhibition. Low values mean inhibition by little substance, high ones a need for much substance. Take `COC(=O)C1C(c2ccc(I)cc2)CC2CCC1N2C` (stereo in doubt; form 1): the IC50 in assay [1] came to 0.00285 µM; in assay [2], 0.0524 µM.
In turn, `COC(=O)[C@H]1[C@@H](c2ccc(F)cc2)C[C@H]2CC[C@H]1N2C` (stereo in doubt; 2a) displayed an IC50 in assay [3] of 5.06 µM.
Still for that read-out and setting: for `COC(=O)[C@H]1[C@@H](c2ccc(F)cc2)C[C@H]2CC[C@H]1N2C` (stereo in doubt; 1a) the value was 0.81 µM.
With `COC(=O)C1C(c2ccc(Cl)cc2)CC2CCC1N2C` (stereo in doubt; 2c), the figures for the IC50 in assay [3] and in assay [1] were 0.998 µM and 0.0024 µM, respectively.
As to `COC(=O)C1C(c2ccc(C)cc2)CC2CCC1N2C` (centres undefined), the IC50 is 0.0102 µM in assay [1] and 0.275 µM in assay [2].
`COC(=O)[C@@H]1C2CC[C@H](C[C@@H]1c1ccccc1)N2C` (stereo in doubt; 2e) came in with a concentration for half-maximal inhibition (IC50) in assay [1] of 0.101 µM.
